Read-outs that look alike come from different tables or passages of the source.
Columns and labels:
Assay type in all cases: cell-based, Trichoderma reesei
[1] = system: T. reesei strain RLP37 NikM743T; assay: Liquid medium fungicide screen, conidiospore germination in YEG; conditions: all concentrations tested (11.25, 22.5, 45 or 90 μM), overnight at 28° C.
Protocol: (§1) For use in liquid medium fungicide screens, conidiospores from T. reesei strains RLP37 and RLP37 NikM743T were harvested and diluted to a concentration of 10,000/ml. Equal numbers of spores were inoculated into liquid YEG medium (5 g/L yeast extract, 22 g/1 glucose. H2O) containing 0, 11.25, 22.5, 45 or 90 μM iprodione or fludioxonil and allowed to germinate overnight at 28° C. […] Furthermore, sensitivity of RLP37 and resistance of RLP37 NikM743T persisted when inoculation culture was scaled up to […].

[2] = system: T. reesei strain RLP37; assay: as above; conditions: for germination and hyphal growth of conidiospores: 11.25 μM fungicide, overnight at 28° C., 10,000 spores/ml
Protocol: as §1

[3] = system: T. reesei strain RLP37; assay: Agar (solid) medium fungicide screen, colony growth on Vogel's minimal medium with glucose; conditions: agar plates, 3 days at 32° C.
Protocol: (§2) For use in agar (solid) medium fungicide screens or selections, conidiospores from T. reesei strains RLP37 and RLP37 Nik^M743T were harvested and diluted to a concentration such that a known number of spores were plated per 10 cm plate containing nutrient agar Vogel's minimal medium with glucose (Vogel, Microbial Genet. Bull. 13:42-43 (1956); Vogel, Am. Nat. 98:435-446 (1964)). Equal numbers of spores for each strain were spread onto the surface of nutrient agar plates containing 0, 11.25, 22.5, 45 or 90 μM iprodione and allowed to grow for 3 days at 32° C. […] This mixed population of spores was spread onto Vogel's minimal medium agar containing 45 μM iprodione and allowed to grow for 3 days at 32° C. Colonies were counted and evaluated for presence of the nik1^M743T mutation by PCR and sequencing (Sequetech, Mountain View, Calif., USA), using the following primers: […]

[4] = system: T. reesei strain RLP37 Nik^M743T; assay: as above; conditions: 11.25, 22.5, 45 or 90 μM, agar plates, 3 days at 32° C.
Protocol: as §2

With N#Cc1c[nH]cc1-c1cccc2c1OC(F)(F)O2 [fludioxonil] the “germination and hyphal growth of conidiospores” value (from here on “germination and hyphal growth”) [1] was “germinated and produced elongated hyphae”, the “germination and hyphal growth” value ([2]; liquid YEG medium) was “clear inhibition of hyphal growth” and the “germination and growth of conidiospores” value ([2]; concentrations above 11.25 μM (22.5, 45 or 90 μM), liquid YEG medium, overnight at 28° C.) was “complete inhibition of germination and growth”.
With CC(C)NC(=O)N1CC(=O)N(c2cc(Cl)cc(Cl)c2)C1=O [iprodione] the colony growth ([3]; 45 μM and above) was “failed to grow at all”, the colony growth ([3]; 11.25 and 22.5 μM) was “failed to grow to any larger than the size of the tip of a pin” and the colony growth [4] was “grew similarly to colonies growing on nutrient agar plates without iprodione”. For the same compound, the “germination and hyphal growth” value [1] was “germinated and produced elongated hyphae”, the “germination and growth of conidiospores” value [2] was “complete inhibition of germination and growth” and the “germination and hyphal growth” value ([2]; liquid YEG medium) was “clear inhibition of hyphal growth”.

Reference: patent US10907187B2, “Fungal strains and methods of use” (DANISCO US INC., priority 2015, dated 2021)
